Patent US20210395239A1 (Hoffmann-La Roche Inc., priority 2018, published 2021)

Key:
CYP2C9 = target: T1, CYP2C9 (Homo sapiens, UniProt P11712); experiment: CYP inhibition assay in human liver microsome, CYP2C9; format: in vitro ADME; conditions: substrate diclofenac 5 μM, first value of 2C9/2D6/3A4; for inhibition at 5 min, 10 µM: human, human liver microsomes, probe diclofenac 5 μM
T1 construct: tissue BD-Gentest 452117; host or cells: human liver microsomes
How it was run: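 Pooled human liver microsomes with a substrate for each CYP were incubated with compound at 37 °C after NADPH addition, for 5 min (CYP2D6: 10 min), then quenched with acetonitrile containing labelled metabolite standards. Metabolite/internal-standard peak area ratios were measured by RapidFire MS/MS. % inhibition was scaled between DMSO and standard-inhibitor controls.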

CYP2D6 = target: T2, CYP2D6 (Homo sapiens, UniProt P10635); experiment: CYP inhibition assay in human liver microsome, CYP2D6; format: in vitro ADME; conditions: substrate dextromethorphan 5 μM, second value of 2C9/2D6/3A4; for inhibition at 10 min, 10 µM: human, human liver microsomes, probe dextromethorphan 5 μM
T2 construct: tissue BD-Gentest 452117; host or cells: human liver microsomes
T2 sequence (P10635 whole entry): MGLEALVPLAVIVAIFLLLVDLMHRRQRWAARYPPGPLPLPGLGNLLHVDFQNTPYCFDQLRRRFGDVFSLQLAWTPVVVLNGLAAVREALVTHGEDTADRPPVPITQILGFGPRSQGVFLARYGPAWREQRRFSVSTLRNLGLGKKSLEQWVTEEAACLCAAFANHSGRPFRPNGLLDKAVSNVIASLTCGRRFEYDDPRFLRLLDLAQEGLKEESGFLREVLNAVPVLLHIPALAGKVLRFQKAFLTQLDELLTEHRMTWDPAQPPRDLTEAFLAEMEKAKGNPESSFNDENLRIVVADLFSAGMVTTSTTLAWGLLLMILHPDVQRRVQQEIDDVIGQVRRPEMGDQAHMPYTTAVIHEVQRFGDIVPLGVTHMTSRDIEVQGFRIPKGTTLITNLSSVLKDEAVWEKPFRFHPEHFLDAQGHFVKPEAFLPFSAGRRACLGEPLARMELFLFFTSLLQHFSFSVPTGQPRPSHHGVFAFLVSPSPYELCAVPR
Protocol: This is a high throughput screening assay used for assessment of reversible inhibition of CYP2C9, CYP2D6, and CYP3A4 activity of test compounds in human liver microsome (HLM) in early discovery stage.
10 mM DMSO stock solutions of test compounds were diluted in DMSO to generate 2 mM intermediate stock solution. 250 nL, of intermediate stock solution were transferred in duplicate into 3 separate 384 well microtitre plates (assay-ready plates). A mixture of HLM and each substrate was made up. 45 μL of HLM substrate mix was then transferred to each well of an assay ready plate and mixed. The negative (solvent) and positive controls (standard inhibitor for each CYP) were included in each assay ready plate. The assay ready plate was warmed to 37° C. in an incubator over 10 minutes. 5 μL pre-warmed NADPH regenerating system was added to each incubation well to start the reaction. Final incubation volume was 50 μL. The assay plate then was placed back in the 37° C. incubator. After incubation (10 minutes for CYP2D6) for 5 minutes, incubates were quenched by addition of 50 μL 100% acetonitrile containing internal standards (400 ng/mL 13C6-4′-OH-Diclofenac, 20 ng/mL D3-Dextrorphan and 20 ng/mL D4-1′OH-Midazolam). The supernatants were collected for RapidFire/MS/MS analysis.
RapidFire online solid phase extraction/sample injection system (Agilent) coupled with API4000 triple quadrupole mass spectrometer (AB Sciex) were used for sample analysis. The mobile phase composed of acetonitrile and water supplemented with 0.1% formic acid. A C4 solid phase extraction cartridge is used for sample separation. MS detection is achieved in positive ion MRM mode.
Peak areas for substrate, metabolite and internal standard are determined using the RapidFire integrator software (version 3.6.12009.12296). Peak area ratios (PAR) of metabolite and internal standard (stable-labelled metabolite) are then calculated. The measurement window for each experiment is then defined:
PAR (0% activity)=average PAR for all incubations containing concentrated inhibitor; Par (100% activity)=average PAR for all incubations containing no inhibitor (DMSO controls); % Activity (test inhibitor)=[PAR (test inhibitor)−PAR (0% activity)]/[PAR (100% activity)−PAR (0% activity)]; % Inhibition (test inhibitor)=100-% Activity (test inhibitor).

hERG channel = target: T3, hERG channel (Homo sapiens, UniProt Q12809); experiment: hERG channel inhibition assay (patch-clamp, CHOhERG cells); format: cell-based; conditions: for IC20: human, CHO cells stably expressing hERG (CHOhERG); for IC20 / IC50: patch-clamp, CHOhERG cells; for hERG IC20/TLR7 IC50 / hERG IC20/TLR8 IC50 / hERG IC20/TLR9 IC50: safety ratio
T3 construct: expressed in transfected cells; host or cells: CHO (Chinese hamster ovary)
T3 sequence (Q12809 whole entry): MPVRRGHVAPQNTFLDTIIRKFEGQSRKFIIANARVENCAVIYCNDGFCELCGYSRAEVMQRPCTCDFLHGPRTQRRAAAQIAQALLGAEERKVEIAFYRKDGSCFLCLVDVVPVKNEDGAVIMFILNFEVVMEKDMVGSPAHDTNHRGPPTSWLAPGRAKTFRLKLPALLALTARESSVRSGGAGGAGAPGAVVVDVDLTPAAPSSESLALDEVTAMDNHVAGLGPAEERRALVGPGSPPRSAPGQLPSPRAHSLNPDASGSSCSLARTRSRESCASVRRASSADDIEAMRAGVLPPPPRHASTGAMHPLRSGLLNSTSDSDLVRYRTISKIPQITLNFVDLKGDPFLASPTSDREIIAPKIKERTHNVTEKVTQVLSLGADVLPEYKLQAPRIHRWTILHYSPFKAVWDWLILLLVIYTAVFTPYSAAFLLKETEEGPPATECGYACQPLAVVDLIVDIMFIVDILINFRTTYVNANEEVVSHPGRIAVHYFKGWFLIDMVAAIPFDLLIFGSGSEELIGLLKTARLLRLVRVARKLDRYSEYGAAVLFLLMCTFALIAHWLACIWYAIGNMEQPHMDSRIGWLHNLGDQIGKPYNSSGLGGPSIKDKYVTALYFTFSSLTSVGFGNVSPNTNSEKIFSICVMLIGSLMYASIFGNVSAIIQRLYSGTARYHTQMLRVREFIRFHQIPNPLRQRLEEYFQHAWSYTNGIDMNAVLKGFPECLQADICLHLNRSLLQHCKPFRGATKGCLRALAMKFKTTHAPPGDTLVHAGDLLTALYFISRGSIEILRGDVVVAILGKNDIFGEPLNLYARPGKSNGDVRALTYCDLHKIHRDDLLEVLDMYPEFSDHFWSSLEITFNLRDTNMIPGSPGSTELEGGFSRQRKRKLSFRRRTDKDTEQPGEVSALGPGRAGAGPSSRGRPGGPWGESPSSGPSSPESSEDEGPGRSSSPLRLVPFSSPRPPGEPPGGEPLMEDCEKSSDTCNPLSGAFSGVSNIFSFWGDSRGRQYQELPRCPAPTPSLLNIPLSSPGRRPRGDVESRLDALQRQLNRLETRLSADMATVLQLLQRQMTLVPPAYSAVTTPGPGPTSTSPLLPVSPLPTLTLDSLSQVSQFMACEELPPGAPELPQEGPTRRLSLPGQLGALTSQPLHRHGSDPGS
How it was run: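 Whole-cell voltage-clamp recordings used CHO cells stably expressing human hERG, with IKhERG evoked by a voltage protocol at 0.1 Hz. Increasing compound concentrations were applied, each for 3–10 min to reach steady state, and current amplitude and kinetics were expressed relative to control (100%).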

T1 sequence (P11712 whole entry): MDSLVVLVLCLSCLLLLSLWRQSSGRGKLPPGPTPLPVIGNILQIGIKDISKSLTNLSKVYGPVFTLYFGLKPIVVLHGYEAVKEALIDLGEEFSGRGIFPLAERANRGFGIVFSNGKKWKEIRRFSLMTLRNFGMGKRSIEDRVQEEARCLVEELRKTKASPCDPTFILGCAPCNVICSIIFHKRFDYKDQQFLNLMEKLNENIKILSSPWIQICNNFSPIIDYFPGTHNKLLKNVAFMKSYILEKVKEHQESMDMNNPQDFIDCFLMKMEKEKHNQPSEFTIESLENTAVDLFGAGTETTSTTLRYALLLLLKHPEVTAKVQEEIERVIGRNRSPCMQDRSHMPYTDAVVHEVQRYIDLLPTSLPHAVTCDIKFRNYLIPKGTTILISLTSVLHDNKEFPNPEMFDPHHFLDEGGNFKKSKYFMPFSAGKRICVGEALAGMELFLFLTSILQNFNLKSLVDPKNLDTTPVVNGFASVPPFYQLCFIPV

| Structure (SMILES) | inhibition at 5 min, 10 µM (CYP2C9) | inhibition at 10 min, 10 µM (CYP2D6) | further results |
| --- | --- | --- | --- |
| C[C@@H]1CN(c2ccc(C#N)c3ncccc23)C[C@H](CN2CCN(c3nc(N4CCNCC4)ncc3F)CC2)O1 [Example 45, 5-[(2S,6R)-2-[[4-(5-fluoro-2-piperazin-1-yl-pyrimidin-4-yl)piperazin-1-yl]methyl]-6-methyl-morpholin-4-yl]quinoline-8-carbonitrile] | -3.5% | 5% | – |
| C[C@@H]1CN(c2ccc(C#N)c3ncccc23)C[C@H](CN2CCN(c3cccc(NC4CNC4)n3)CC2)O1 [Example 38] | 20% | 20.5% | IC20 (hERG channel): 5.5 µM; IC50 (hERG channel): > 20 µM; hERG IC20/TLR7 IC50 (hERG channel): 344; hERG IC20/TLR8 IC50 (hERG channel): 500; hERG IC20/TLR9 IC50 (hERG channel): 57 |
| C[C@@H]1CN(c2ccc(C#N)c3ncccc23)C[C@H](CN2CCN(c3ccnc(N4CCN[C@@H](CO)C4)n3)CC2)O1 [Example 29, 5-[(2S,6R)-2-[[4-[2-[(3R)-3-(hydroxymethyl)piperazin-1-yl]pyrimidin-4-yl]piperazin-1-yl]methyl]-6-methyl-morpholin-4-yl]quinoline-8-carbonitrile] | -2% | 8.5% | – |
| CO[C@H]1CN(c2nccc(N3CCN(C[C@H]4CN(c5ccc(C#N)c6ncccc56)C[C@@H](C)O4)CC3)n2)CC1N (stereo in doubt) [Example 53, 5-[(2S,6R)-2-[[4-[2-[(3S,4S)-3-amino-4-methoxy-pyrrolidin-1-yl]pyrimidin-4-yl]piperazin-1-yl]methyl]-6-methyl-morpholin-4-yl]quinoline-8-carbonitrile] | – | – | CYP (%) 2C9 inhibition (CYP2C9): −4.5%; CYP (%) 2D6 inhibition (CYP2D6): 21.5% |
| C[C@@H]1CN(c2ccc(C#N)c3ncccc23)C[C@H](CN2CCN(c3cncc(N4CCNCC4)c3)CC2)O1 [Example 7, 5-[(2R,6S)-2-methyl-6-[[4-(5-piperazin-1-yl-3-pyridyl)piperazin-1-yl]methyl]morpholin-4-yl]quinoline-8-carbonitrile] | 2% | 7.5% | IC20 (hERG channel): > 10 µM; IC50 (hERG channel): > 20 µM; hERG IC20/TLR7 IC50 (hERG channel): >294; hERG IC20/TLR8 IC50 (hERG channel): >1111; hERG IC20/TLR9 IC50 (hERG channel): >196 |
| C[C@@H]1CN(c2ccc(C#N)c3ncccc23)C[C@H](CN2CCN(c3ccnc(N4CCN(C)CC4)n3)CC2)O1 [Example 22, 5-((2R,6S)-2-methyl-6-((4-(2-(4-methylpiperazin-1-yl)pyrimidin-4-yl)piperazin-1-yl)methyl)morpholino)quinoline-8-carbonitrile] | 20% | 2% | – |
| C[C@@H]1CN(c2ccc(C#N)c3ncccc23)C[C@H](CN2CCN(c3cc(N4CCNCC4)ccn3)CC2)O1 [Example 9, 5-[(2R,6S)-2-methyl-6-[[4-(4-piperazin-1-yl-2-pyridyl)piperazin-1-yl]methyl]morpholin-4-yl]quinoline-8-carbonitrile] | -7.5% | 2% | – |
| C[C@@H]1CN(c2ccc(C#N)c3ncccc23)C[C@H](CN2CCN(c3nccc(N4CCNCC4)n3)CC2)O1 [Example 14, 5-[(2R,6S)-2-methyl-6-[[4-(4-piperazin-1-ylpyrimidin-2-yl)piperazin-1-yl]methyl]morpholin-4-yl]quinoline-8-carbonitrile] | 0% | 16.5% | – |
| COC1CN(c2nccc(N3CCN(C[C@H]4CN(c5ccc(C#N)c6ncccc56)C[C@@H](C)O4)CC3)n2)C[C@H]1N (stereo in doubt) [Example 52, 5-[(2S,6R)-2-[[4-[2-[(3R,4R)-3-amino-4-methoxy-pyrrolidin-1-yl]pyrimidin-4-yl]piperazin-1-yl]methyl]-6-methyl-morpholin-4-yl]quinoline-8-carbonitrile] | – | – | CYP (%) 2C9 inhibition (CYP2C9): 3.5%; CYP (%) 2D6 inhibition (CYP2D6): 10.5% |
| C[C@@H]1CN(c2ccc(C#N)c3ncccc23)C[C@H](CN2CCN(c3ccc([C@@H]4CNCCO4)cc3)CC2)O1 [Example 19, 5-[(2R,6S)-2-methyl-6-[[4-[4-[(2R)-morpholin-2-yl]phenyl]piperazin-1-yl]methyl]morpholin-4-yl]quinoline-8-carbonitrile] | 11.5% | 0.5% | – |
| C[C@@H]1CN(c2ccc(C#N)n3ncc(F)c23)C[C@H](CN2CCN(c3ccc(N4CC5(CN(C)C5)C4)nc3)CC2)O1 [Example 170, 3-fluoro-4-[(2R,6S)-2-methyl-6-[[4-[6-(6-methyl-2,6-diazaspiro[3.3]heptan-2-yl)-3-pyridyl]piperazin-1-yl]methyl]morpholin-4-yl]pyrazolo[1,5-a]pyridine-7-carbonitrile] | -1% | 0% | – |
| C[C@@H]1CN(c2ccc(C#N)c3ncccc23)C[C@H](CN2CCN(c3ccc(N4CCNCC4)cn3)CC2)O1 [Example 8, 5-[(2R,6S)-2-methyl-6-[[4-(5-piperazin-1-yl-2-pyridyl)piperazin-1-yl]methyl]morpholin-4-yl]quinoline-8-carbonitrile] | 1% | 6% | – |
| C[C@@H]1CN(c2ccc(C#N)c3ncccc23)C[C@H](CN2CCC(C#N)(c3ccc(N4CCNCC4)cc3)CC2)O1 [Example 11, 5-[(2S,6R)-2-[[4-cyano-4-(4-piperazin-1-ylphenyl)-1-piperidyl]methyl]-6-methyl-morpholin-4-yl]quinoline-8-carbonitrile] | 0.5% | 0% | – |
| C[C@@H]1CN(c2ccc(C#N)c3ncccc23)C[C@H](CN2CCN(c3ccnc(N[C@H]4CNC[C@H]4F)n3)CC2)O1 [Example 24, 5-[(2S,6R)-2-[[4-[2-[[(3S,4R)-4-fluoropyrrolidin-3-yl]amino]pyrimidin-4-yl]piperazin-1-yl]methyl]-6-methyl-morpholin-4-yl]quinoline-8-carbonitrile] | 3.5% | 6% | – |
| C[C@@H]1CN(c2ccc(C#N)c3ncccc23)C[C@H](CN2CCN(c3cc(N4CCN(C)CC4)ncn3)CC2)O1 [Example 21, 5-[(2R,6S)-2-methyl-6-[[4-[6-(4-methylpiperazin-1-yl)pyrimidin-4-yl]piperazin-1-yl]methyl]morpholin-4-yl]quinoline-8-carbonitrile] | -3% | 2.5% | – |
| COC1CN(c2ccc(N3CCN(C[C@H]4CN(c5ccc(C#N)c6ncccc56)C[C@@H](C)O4)CC3)cn2)CC1N (stereo partly drawn) [Example 43, 5-[(2S,6R)-2-[[4-[6-(3-amino-4-methoxy-pyrrolidin-1-yl)-3-pyridyl]piperazin-1-yl]methyl]-6-methyl-morpholin-4-yl]quinoline-8-carbonitrile] | 2.5% | -11% | – |
| C[C@@H]1CN(c2ccc(C#N)c3ncccc23)C[C@H](CN2CCN(c3ccnc(N4CCNCC(O)C4)n3)CC2)O1 (stereo partly drawn) [Example 25, 5-[(2S,6R)-2-[[4-[2-(6-hydroxy-1,4-diazepan-1-yl)pyrimidin-4-yl]piperazin-1-yl]methyl]-6-methyl-morpholin-4-yl]quinoline-8-carbonitrile] | -5.5% | 5.5% | – |
| COC1CNC[C@H]1Nc1cccc(N2CCN(C[C@H]3CN(c4ccc(C#N)c5ncccc45)C[C@@H](C)O3)CC2)n1 (stereo in doubt) [Example 39, 5-[(2S,6R)-2-[[4-[6-[[(3R,4R)-4-methoxypyrrolidin-3-yl]amino]-2-pyridyl]piperazin-1-yl]methyl]-6-methyl-morpholin-4-yl]quinoline-8-carbonitrile] | 23% | -4% | – |
